Reference: patent publication US20260092071A1, “COMPOUNDS AND COMPOSITIONS AS SMARCA2/4 DEGRADERS AND USES THEREOF” (REGENTS OF THE UNIVERSITY OF MICHIGAN, priority 2022, published 2026)
Read-outs that look alike come from different tables or passages of the source.

How the values were obtained:
SMARCA2 = SMARCA2 (Homo sapiens, UniProt P51531); experiment: HiBiT assay for protein degradation, Hela SMARCA2-HiBiT cells (A series); type: cell-based; set-up: Hela cells were genetically modified via CRISPR/Cas9 to fuse HiBiT to the carboxy terminus of SMARCA2; host or cells: HeLa (CRISPR/Cas9 HiBiT knock-in); conditions: for DC50: read-out: SMARC A2 Hela HiBit DC50; for Dmax: read-out: SMARC A2 Hela HiBit Dmax (%)
SMARCA2, sequence (P51531 whole entry, the tested form may be a part): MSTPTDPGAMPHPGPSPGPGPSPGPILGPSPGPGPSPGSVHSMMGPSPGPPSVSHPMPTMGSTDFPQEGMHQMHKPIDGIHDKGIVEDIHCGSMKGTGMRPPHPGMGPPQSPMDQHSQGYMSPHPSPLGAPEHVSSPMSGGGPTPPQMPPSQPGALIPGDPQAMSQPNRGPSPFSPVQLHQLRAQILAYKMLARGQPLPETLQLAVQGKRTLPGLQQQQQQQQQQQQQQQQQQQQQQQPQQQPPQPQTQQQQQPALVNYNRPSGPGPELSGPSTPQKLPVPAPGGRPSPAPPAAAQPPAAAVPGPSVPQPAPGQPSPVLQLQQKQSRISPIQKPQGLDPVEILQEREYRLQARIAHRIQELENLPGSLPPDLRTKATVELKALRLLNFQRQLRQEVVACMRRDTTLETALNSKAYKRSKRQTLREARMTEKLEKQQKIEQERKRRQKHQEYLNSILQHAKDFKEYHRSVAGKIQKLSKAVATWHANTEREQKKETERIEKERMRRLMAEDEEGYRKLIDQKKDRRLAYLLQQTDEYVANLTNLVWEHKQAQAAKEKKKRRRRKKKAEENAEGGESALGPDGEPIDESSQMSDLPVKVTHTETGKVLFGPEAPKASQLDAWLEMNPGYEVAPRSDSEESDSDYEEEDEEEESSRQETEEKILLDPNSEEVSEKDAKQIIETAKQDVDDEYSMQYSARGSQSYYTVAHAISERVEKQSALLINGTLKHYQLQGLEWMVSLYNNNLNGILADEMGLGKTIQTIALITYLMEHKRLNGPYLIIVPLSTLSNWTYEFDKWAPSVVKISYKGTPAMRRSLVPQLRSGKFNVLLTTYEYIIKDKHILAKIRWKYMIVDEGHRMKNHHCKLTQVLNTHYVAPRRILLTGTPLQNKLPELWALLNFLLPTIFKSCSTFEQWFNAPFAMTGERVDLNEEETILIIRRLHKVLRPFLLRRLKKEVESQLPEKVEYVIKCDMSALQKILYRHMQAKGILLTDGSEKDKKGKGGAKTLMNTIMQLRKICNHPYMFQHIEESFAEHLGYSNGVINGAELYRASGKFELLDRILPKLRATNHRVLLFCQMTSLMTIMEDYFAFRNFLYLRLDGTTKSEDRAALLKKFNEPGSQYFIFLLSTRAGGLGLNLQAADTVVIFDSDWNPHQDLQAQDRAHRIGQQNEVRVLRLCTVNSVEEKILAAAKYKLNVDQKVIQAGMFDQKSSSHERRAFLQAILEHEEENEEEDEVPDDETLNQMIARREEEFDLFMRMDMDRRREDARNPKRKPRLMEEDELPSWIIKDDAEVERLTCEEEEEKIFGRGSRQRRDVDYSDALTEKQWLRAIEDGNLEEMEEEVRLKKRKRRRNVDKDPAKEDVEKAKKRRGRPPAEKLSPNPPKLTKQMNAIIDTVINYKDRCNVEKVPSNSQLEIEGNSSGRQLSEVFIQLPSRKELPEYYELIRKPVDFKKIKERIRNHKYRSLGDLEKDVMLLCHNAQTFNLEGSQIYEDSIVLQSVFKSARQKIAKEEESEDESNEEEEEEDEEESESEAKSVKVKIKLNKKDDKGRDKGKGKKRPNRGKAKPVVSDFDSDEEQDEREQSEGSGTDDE
In short: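 HeLa cells engineered by CRISPR/Cas9 to carry a HiBiT tag fused to the C-terminus of SMARCA2 (Promega CS302365) were grown in DMEM supplemented with FBS and penicillin-streptomycin. After treatment, remaining SMARCA2 protein was quantified with the Nano-Glo® HiBiT Lytic Detection Assay (Promega N3050), and curves were fitted in GraphPad Prism.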

SMARCA4 = SMARCA4 (Homo sapiens, UniProt P51532); experiment: HiBiT assay for protein degradation, Hela SMARCA4-HiBiT cells (A series); type: cell-based; set-up: fuse HiBiT to the carboxy terminus of SMARCA2 (Promega CS302365) or SMARCA4 (Promega CS3023225); host or cells: HeLa (CRISPR/Cas9 HiBiT knock-in); conditions: for DC50: read-out: SMARC A4 Hela HiBit DC50
SMARCA4, sequence (P51532 whole entry, the tested form may be a part): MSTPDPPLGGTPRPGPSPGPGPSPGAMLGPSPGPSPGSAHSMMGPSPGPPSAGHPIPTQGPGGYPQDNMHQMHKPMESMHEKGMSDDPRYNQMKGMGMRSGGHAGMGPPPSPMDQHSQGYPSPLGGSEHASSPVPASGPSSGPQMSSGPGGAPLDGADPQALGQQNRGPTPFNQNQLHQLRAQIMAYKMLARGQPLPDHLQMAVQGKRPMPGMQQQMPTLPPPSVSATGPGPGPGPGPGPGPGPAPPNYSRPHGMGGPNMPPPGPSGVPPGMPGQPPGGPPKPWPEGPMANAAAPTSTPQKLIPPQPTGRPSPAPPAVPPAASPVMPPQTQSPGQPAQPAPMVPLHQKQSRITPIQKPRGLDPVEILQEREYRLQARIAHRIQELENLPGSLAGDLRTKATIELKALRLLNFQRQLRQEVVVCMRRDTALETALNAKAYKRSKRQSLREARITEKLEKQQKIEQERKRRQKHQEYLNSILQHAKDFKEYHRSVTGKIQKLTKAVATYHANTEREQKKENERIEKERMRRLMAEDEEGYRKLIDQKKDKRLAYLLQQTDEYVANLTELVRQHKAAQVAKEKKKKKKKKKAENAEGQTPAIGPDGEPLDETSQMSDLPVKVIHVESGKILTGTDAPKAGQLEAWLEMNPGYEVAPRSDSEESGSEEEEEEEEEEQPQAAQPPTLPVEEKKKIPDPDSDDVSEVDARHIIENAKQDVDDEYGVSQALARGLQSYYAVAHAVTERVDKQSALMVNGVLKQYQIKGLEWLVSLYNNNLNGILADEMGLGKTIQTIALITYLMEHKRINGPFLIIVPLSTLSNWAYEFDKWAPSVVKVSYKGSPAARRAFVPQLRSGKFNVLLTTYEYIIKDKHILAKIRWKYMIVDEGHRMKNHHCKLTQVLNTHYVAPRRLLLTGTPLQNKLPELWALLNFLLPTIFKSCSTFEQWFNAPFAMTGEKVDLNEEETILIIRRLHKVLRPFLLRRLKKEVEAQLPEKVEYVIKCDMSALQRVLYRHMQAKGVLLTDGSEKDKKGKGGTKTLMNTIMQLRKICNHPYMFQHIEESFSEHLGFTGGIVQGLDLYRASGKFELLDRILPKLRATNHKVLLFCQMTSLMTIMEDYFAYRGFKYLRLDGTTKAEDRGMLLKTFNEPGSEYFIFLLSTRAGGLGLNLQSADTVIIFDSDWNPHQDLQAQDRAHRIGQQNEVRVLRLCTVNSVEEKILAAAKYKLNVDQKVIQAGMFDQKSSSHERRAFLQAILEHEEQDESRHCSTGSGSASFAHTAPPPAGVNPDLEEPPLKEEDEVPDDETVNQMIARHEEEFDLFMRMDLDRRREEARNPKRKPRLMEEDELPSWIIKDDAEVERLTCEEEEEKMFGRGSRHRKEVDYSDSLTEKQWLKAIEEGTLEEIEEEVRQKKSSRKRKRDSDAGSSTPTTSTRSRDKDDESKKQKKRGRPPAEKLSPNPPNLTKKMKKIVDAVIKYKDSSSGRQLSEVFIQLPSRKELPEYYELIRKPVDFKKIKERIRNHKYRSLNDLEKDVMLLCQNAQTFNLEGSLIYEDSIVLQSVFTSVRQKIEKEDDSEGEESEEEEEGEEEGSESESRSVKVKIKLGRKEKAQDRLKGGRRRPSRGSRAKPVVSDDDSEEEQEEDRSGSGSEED
In short: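 HeLa cells engineered by CRISPR/Cas9 to carry a HiBiT tag fused to the C-terminus of SMARCA4 (Promega CS3023225) were grown in DMEM supplemented with FBS and penicillin-streptomycin. After compound exposure, remaining SMARCA4 protein was quantified using the Nano-Glo® HiBiT Lytic Detection Assay (Promega N3050), and curves were fitted in GraphPad Prism.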

[1] = Hela SMARCA2-HiBiT cells, 24 hours treatment
[2] = Hela SMARCA4-HiBiT cells, 24 hours treatment
[3] = Hela SMARCA4-HiBiT cells, 24 hours treatment, read-out: SMARC A4 Hela HiBit Dmax

DC50 (SMARCA2; [1]) | Dmax (SMARCA2; [1]) | DC50 (SMARCA4; [2]) | Dmax (SMARCA4; [3]) | Structure (SMILES) | further results
– | – | – | – | Cc1ncsc1-c1ccc([C@H](C)NC(=O)[C@@H]2C[C@@H](O)CN2C(=O)[C@@H](n2cc(CCCCN3CCC(c4ccc5c(c4)-n4c(nc(=O)c6c(Br)cccc64)C54CCCCC4)CC3)nn2)C(C)(C)C)cc1 [Compound A45, (2S,4R)-1-((S)-2-(4-(4-(4-(4′-bromo-5′-oxo-5′H-spiro[cyclohexane-1,7′-indolo[1,2-a]quinazolin]-10′-yl)piperidin-1-yl)butyl)-1H-1,2,3-triazol-1-yl)-3,3-dimethylbutanoyl)-4-hydroxy-N—((S)-1-(4-(4-methylthiazol-5-yl)phenyl)ethyl)pyrrolidine-2-carboxamide] | SMARC A2 Hela HiBit Dmax (%) (SMARCA2; [1]): A (A (>90% degradation)); DC50 (SMARCA2): < 100 nM; SMARC A4 Hela HiBit Dmax(%) (SMARCA4; [2]): B (B (70-90% degradation)); DC50 (SMARCA4): < 100 nM
– | – | – | – | Cc1ncsc1-c1ccc([C@H](C)NC(=O)[C@@H]2C[C@@H](O)CN2C(=O)[C@@H](NC(=O)CN2CCC(c3ccc4c(c3)-n3c(nc(=O)c5c(Br)cccc53)C43CCCCC3)CC2)C(C)(C)C)cc1 [Compound A40, (2S,4R)-1-((S)-2-(2-(4-(4′-bromo-5′-oxo-5′H-spiro[cyclohexane-1,7′-indolo[1,2-a]quinazolin]-10′-yl)piperidin-1-yl)acetamido)-3,3-dimethylbutanoyl)-4-hydroxy-N—((S)-1-(4-(4-methylthiazol-5-yl)phenyl)ethyl)pyrrolidine-2-carboxamide] | Dmax (SMARCA2; HeLa): > 90%; DC50 (SMARCA2): < 100 nM; Dmax (SMARCA4; HeLa, read-out: SMARC A4 Hela HiBit Dmax(%)): > 90%; DC50 (SMARCA4): < 100 nM
< 10 nM | > 90% | < 10 nM | 70 to 90% | Cc1ncsc1-c1ccc([C@@H](NC(=O)[C@@H]2C[C@@H](O)CN2C(=O)[C@@H](n2cc(C3CC3)nn2)C(C)(C)C)C(=O)N2CCC3(CCC(CN4CCC(c5ccc6c(c5)-n5c(nc(=O)c7c(Br)cccc75)C65CCCCC5)CC4)CC3)CC2)cc1 [Compound A137, (2S,4R)—N—((R)-2-(9-((4-(4′-bromo-5′-oxo-5′H-spiro[cyclohexane-1,7′-indolo[1,2-a]quinazolin]-10′-yl)piperidin-1-yl)methyl)-3-azaspiro[5.5]undecan-3-yl)-1-(4-(4-methylthiazol-5-yl)phenyl)-2-oxoethyl)-1-((S)-2-(4-cyclopropyl-1H-1,2,3-triazol-1-yl)-3,3-dimethylbutanoyl)-4-hydroxypyrrolidine-2-carboxamide] | –
10 to 100 nM | > 90% | > 1000 nM | < 50% | Cc1ncsc1-c1ccc([C@H](CN2CCC(C(F)F)CC2)NC(=O)[C@@H]2C[C@@H](O)CN2C(=O)[C@@H](n2cc([C@H]3CC[C@H](CN4CCC(c5ccc6c(c5)-n5c(nc(=O)c7c(Cl)cccc75)C65CCCCC5)CC4)CC3)nn2)C(C)(C)C)cc1 [Compound A84, (2S,4R)-1-((S)-2-(4-((1r,4S)-4-((4-(4′-chloro-5′-oxo-5′H-spiro[cyclohexane-1,7′-indolo[1,2-a]quinazolin]-10′-yl)piperidin-1-yl)methyl)cyclohexyl)-1H-1,2,3-triazol-1-yl)-3,3-dimethylbutanoyl)-N—((R)-2-(4-(difluoromethyl)piperidin-1-yl)-1-(4-(4-methylthiazol-5-yl)phenyl)ethyl)-4-hydroxypyrrolidine-2-carboxamide] | –
< 10 nM | > 90% | – | 50 to 69% | Cc1ncsc1-c1ccc([C@H](CN2CCOCC2)NC(=O)[C@@H]2C[C@@H](O)CN2C(=O)[C@H](C2CCCCC2)n2cc([C@H]3CC[C@H](CN4CCC(c5ccc6c(c5)-n5c(nc(=O)c7c(Cl)cccc75)C6(C)C)CC4)CC3)nn2)cc1 [Compound A125, (2S,4R)-1-((S)-2-(4-((1r,4S)-4-((4-(4-chloro-7,7-dimethyl-5-oxo-5,7-dihydroindolo[1,2-a]quinazolin-10-yl)piperidin-1-yl)methyl)cyclohexyl)-1H-1,2,3-triazol-1-yl)-2-cyclohexylacetyl)-4-hydroxy-N—((R)-1-(4-(4-methylthiazol-5-yl)phenyl)-2-morpholinoethyl)pyrrolidine-2-carboxamide] | SMARC A4 Hela HiBit DC50(nM) (SMARCA4; [2]): No fit
< 10 nM | > 90% | > 1000 nM | < 50% | Cc1ncsc1-c1ccc([C@H](C)NC(=O)[C@@H]2C[C@@H](O)CN2C(=O)[C@@H](n2cc([C@H]3CC[C@H](CN4CCC(c5cnc6c(c5)-n5c(nc(=O)c7c(Br)cccc75)C65CCCCC5)CC4)CC3)nn2)C(C)(C)C)cc1 [Compound A76, (2S,4R)-1-((S)-2-(4-((1r,4S)-4-((4-(4′-bromo-5′-oxo-5′H-spiro[cyclohexane-1,7′-pyrido[2′,3′: 4,5]pyrrolo[1,2-a]quinazolin]-10′-yl)piperidin-1-yl)methyl)cyclohexyl)-1H-1,2,3-triazol-1-yl)-3,3-dimethylbutanoyl)-4-hydroxy-N—((S)-1-(4-(4-methylthiazol-5-yl)phenyl)ethyl)pyrrolidine-2-carboxamide] | –
< 10 nM | > 90% | < 10 nM | 70 to 90% | Cc1ncsc1-c1ccc([C@H](CO)NC(=O)[C@@H]2C[C@@H](O)CN2C(=O)[C@H](C2CCCCC2)n2cc([C@H]3CC[C@H](CN4CCC(c5ccc6c(c5)-n5c(nc(=O)c7c(Br)cccc75)C65CCCCC5)CC4)CC3)nn2)cc1 [Compound A127] | –
> 1000 nM | < 50% | > 1000 nM | – | CC(C)(C)[C@H](NC(=O)C1(F)CC1)C(=O)N1C[C@H](O)C[C@H]1C(=O)N[C@@H](CCCCCN1CCC(c2ccc3c(c2)C2(CCCCC2)c2nc(=O)c4c(Br)cccc4n2-3)CC1)c1ccc(Cl)cc1 [Compound A25, (2S,4R)—N—((S)-6-(4-(4′-bromo-5′-oxo-5′H-spiro[cyclohexane-1,7-indolo[1,2-a]quinazolin]-9′-yl)piperidin-1-yl)-1-(4-chlorophenyl)hexyl)-1-((S)-2-(1-fluorocyclopropane-1-carboxamido)-3,3-dimethylbutanoyl)-4-hydroxypyrrolidine-2-carboxamide] | Dmax (SMARCA4; Hela SMARCA4-HiBiT cells, 24 hours treatment, read-out: SMARC A4 Hela HiBit Dmax(%)): < 50%
< 10 nM | > 90% | > 1000 nM | < 50% | CC(C)(C)[C@@H](C(=O)N1C[C@H](O)C[C@H]1C(=O)N[C@@H](CN1CCOCC1)c1ccc(-c2ccncc2)cc1)n1cc([C@H]2CC[C@H](CN3CCC(c4ccc5c(c4)-n4c(nc(=O)c6c(Cl)cccc64)C54CCCCC4)CC3)CC2)nn1 [Compound A172, (2S,4R)-1-((S)-2-(4-((1r,4S)-4-((4-(4′-chloro-5′-oxo-5′H-spiro[cyclohexane-1,7′-indolo[1,2-a]quinazolin]-10′-yl)piperidin-1-yl)methyl)cyclohexyl)-1H-1,2,3-triazol-1-yl)-3,3-dimethylbutanoyl)-4-hydroxy-N—((R)-2-morpholino-1-(4-(pyridin-4-yl)phenyl)ethyl)pyrrolidine-2-carboxamide] | –
< 10 nM | > 90% | 100 to 1000 nM | 50 to 69% | Cc1ncsc1-c1ccc([C@H](C)NC(=O)[C@@H]2C[C@@H](O)CN2C(=O)[C@H](C2CCN(C3CCOCC3)CC2)n2cc([C@H]3CC[C@H](CN4CCC(c5ccc6c(c5)-n5c(nc(=O)c7c(Cl)cccc75)C65CCCCC5)CC4)CC3)nn2)cc1 [Compound A112, (2S,4R)-1-((S)-2-(4-((1r,4S)-4-((4-(4′-chloro-5′-oxo-5′H-spiro[cyclohexane-1,7′-indolo[1,2-a]quinazolin]-10′-yl)piperidin-1-yl)methyl)cyclohexyl)-1H-1,2,3-triazol-1-yl)-2-(1-(tetrahydro-2H-pyran-4-yl)piperidin-4-yl)acetyl)-4-hydroxy-N—((S)-1-(4-(4-methylthiazol-5-yl)phenyl)ethyl)pyrrolidine-2-carboxamide] | –

Structure (SMILES) | DC50 (SMARCA2; [1]) | Dmax (SMARCA2; [1]) | DC50 (SMARCA4; [2]) | Dmax (SMARCA4; [3]) | further results
C[C@H](NC(=O)[C@@H]1C[C@@H](O)CN1C(=O)[C@@H](n1cc([C@H]2CC[C@H](CN3CCC(c4ccc5c(c4)-n4c(nc(=O)c6c(Br)cccc64)C54CCCCC4)CC3)CC2)nn1)C(C)(C)C)c1ccc(Cl)cc1 [Compound A68, (2S,4R)-1-((S)-2-(4-((1r,4S)-4-((4-(4′-bromo-5′-oxo-5′H-spiro[cyclohexane-1,7′-indolo[1,2-a]quinazolin]-10′-yl)piperidin-1-yl)methyl)cyclohexyl)-1H-1,2,3-triazol-1-yl)-3,3-dimethylbutanoyl)-N—((S)-1-(4-chlorophenyl)ethyl)-4-hydroxypyrrolidine-2-carboxamide] | < 100 nM | – | > 1000 nM | – | Dmax (SMARCA2; HeLa): > 90%
